Assay results taken from ChEMBL document CHEMBL5136975, “NO-HDAC dual inhibitors” (Eur J Med Chem, 2022).

Columns and labels:
Assay type in all cases: functional
B104 [1] = test: Antiproliferative activity against rat B104 cells assessed as cellular metabolic activity at 1 mM incubated for 24 hrs by resazurin assay
SK-N-SH [2] = test: Antiproliferative activity against human SK-N-SH cells assessed as cellular metabolic activity at 1 mM incubated for 24 hrs by MTT assay
B104 [3] = test: Antiproliferative activity against rat B104 cells assessed as cellular metabolic activity at 1 mM incubated for 24 hrs by MTT assay
IMR-32 [4] = test: Antiproliferative activity against human IMR-32 cells assessed as cellular metabolic activity at 1 mM incubated for 24 hrs by MTT assay
SK-N-SH [5] = test: Antiproliferative activity against human SK-N-SH cells assessed as cellular metabolic activity at 1 mM incubated for 24 hrs by resazurin assay
IMR-32 [6] = test: Antiproliferative activity against human IMR-32 cells assessed as cellular metabolic activity at 1 mM incubated for 24 hrs by resazurin assay

Structure (SMILES): N[C@@H](CCC(=O)N[C@@H](CSN=O)C(=O)NCC(=O)O)C(=O)O [S-NITROSOGLUTATHIONE]
- Activity (B104 [1]): 17%
- Activity (SK-N-SH [2]): 16%
- Activity (B104 [3]): 18%
- Activity (IMR-32 [4]): 14%
- Activity (SK-N-SH [5]): 15%
- Activity (IMR-32 [6]): 13%
